Test results as given in PMC4474554 (PLoS ONE, 2015).
Several values for one entry are separate records, joined by “and”; a condition that tells them apart may be missing. Equal entries are not always repeated. Entries after “also recorded” stand apart in the source; their conditions may differ. Where two headings read alike, the source gives them in different places.

Columns and labels:
[1] = Body weight / side effects in xenograft mice; assay type: in vivo, BALB/c-nu/nu female nude mice; settings: 14 days, nude mice with xenografts
Experimental: (§1) In this experiment, we used BALB/c-nu/nu female nude mice at 4–6 weeks of age that were purchased from Charles River Laboratories Japan, Inc (Yokohama, Japan). They were maintained under specific-pathogen-free conditions in accordance with the guidelines of the Animal Care and Use Committee at Okayama University. […] Every three days, body weight of the mice and the major axis and minor axis of each tumor were measured and calculated tumor volume using the following formula; (major axis) × (minor axis)^2 × 1/2 [37, 38]. For the 14 days, tumor volume, tumor growth rate and the body weight were analyzed as an average of the each group.

[2] = tested on: NCI-H1975; assay: MTS assay, NCI-H1975
[3] = tested on: c-Src; settings: updated data; cited from earlier work
[4] = tested on: FGFR-3 (K650E); set-up: method as in earlier work; settings: updated data; cited from earlier work
[5] = tested on: NCI-H2228; assay: MTS assay, NCI-H2228
[6] = tested on: Flt-1; set-up: method as in earlier work; settings: updated data; cited from earlier work
[7] = tested on: ALK; settings: updated data; cited from earlier work
[8] = tested on: Syk; set-up: method as in earlier work; settings: updated data; cited from earlier work
[9] = tested on: HEK-293T with mutant EGFR (L858R); assay type: cell-based
Experimental: (§2) Drug sensitivity was determined by a modified MTS assay with CellTiter 96 AQueous One Solution Reagent (Promega, Madison, WI). Cells were generally seeded on 96-well plates at a density that would yield 80% confluence by the completion of the experiment, varying by each cell line from 3000 to 4000 per well. […] After that, MTS dye was added to each well. The cultures were incubated for another 1 hour at 37°C in a humidified atmosphere with 5% CO2. Optical densities of samples were measured at 490 nm using Immuno Mini NJ-2300 (Nalge Nunc International KK, Rochester, NY). Mean optical density at each drug concentration was calculated after discarding the highest and lowest values. […] IC50 values were expressed as mean and standard deviations. The assays were repeated until the standard deviation became less than the mean.

[10] = tested on: HCC827; assay type: cell-based
Experimental: as §2

[11] = tested on: NCI-H1648; assay: MTS assay, NCI-H1648
[12] = tested on: NCI-H3255; assay: MTS assay, NCI-H3255
[13] = tested on: phospho-EGFR and downstream AKT, MAPK; assay: Western blotting, EGFR, AKT and MAPK phosphorylation in NSCLC cell lines; assay type: cell-based
Experimental: (§3) Next, they were washed out with cold PBS and lysed in 1 × cell lysis buffer [20 mM Tris-HCl (pH 7.5), 150 mM NaCl, 1 mM Na2EDTA, 1 mM EGTA, 1% Triton, 2.5 mM sodium pyrophosphate, 1 mM beta-glycerophosphate, 1 mM Na3VO4, 1 μg/ml leupeptin] (Cell signaling Technology) supplemented with Complete, Mini (Roche, Basel, Switzerland) to extract protein. After the protein concentration was measured, equal amounts of total protein (30 μg) were separated by SDS-PAGE and transferred to PVDF membranes. The proteins on membranes were incubated overnight at 4°C with the primary antibodies. The following secondary antibodies were used: goat antirabbit or antimouse IgG-conjugated horseradish peroxidase (HRP) (Santa Cruz Biotechnology, Santa Cruz, CA). To detect specific signals, the membranes were incubated by ECL plus Western Blotting Detection Reagents (Amersham Biosciences UK Limited, Buckinghamshire, UK).

[14] = tested on: RPC-9 xenograft; assay: RPC-9 xenograft mouse model; assay type: in vivo, BALB/c-nu/nu female nude mice; settings: oral, once a day, 14 days, 30, 60 and 90 mg/kg, dose-dependent
Experimental: as §1

[15] = tested on: NCI-H1395; assay: MTS assay, NCI-H1395
[16] = tested on: NCI-H1993; assay: MTS assay, NCI-H1993
[17] = tested on: A549; assay: MTS assay, A549
[18] = tested on: c-Abl; set-up: method as in earlier work; settings: updated data; cited from earlier work
[19] = tested on: phospho-FAK; assay: Western blotting, FAK phosphorylation in NSCLC cell lines; assay type: cell-based
Experimental: as §3

[20] = EGFR-mutant cell lines PC-9, HCC827, NCI-H1975, RPC-9

Compound: CNC(=O)c1ccccc1Nc1nc(Nc2ccc(N3CCOCC3)cc2OC)ncc1Cl [TAE226]
- obvious side effects, including the loss of body weight ([1]; 30mg/kg or 60mg/kg oral): did not occur
- body weight ([1]; 90 mg/kg oral): loss of body weight was observed
- IC50 ([2]; read-out: IC50 (μM) (mean ± SD), NCI-H1975, EGFR Exon 21 (L858R) + T790M, MTS, TAE226 48 hours, gefitinib 72 hours): 0.17 ± 0.02 µM
- IC50 [3]: 910 nM
- IC50 ([5]; read-out: IC50 (μM) (mean ± SD), NCI-H2228, EML4-ALK fusion Variant 3, MTS, TAE226 48 hours, gefitinib 72 hours): 0.28 ± 0.001 µM
- IC50 ([5]; read-out: each IC50, NCI-H2228, independent MTS assays): 0.28 µM
- IC50 ([5]; read-out: mean IC50, NCI-H2228, mean of independent MTS assays): 0.28 µM
- IC50 ([9]; HEK293T-L858R, independent MTS assays, read-out: each IC50): 0.43 µM
- IC50 ([9]; Transfected HEK-293T, mutant EGFR (L858R), MTS, TAE226 48 hours, gefitinib 72 hours, read-out: IC50 (μM) (mean ± SD)): 0.41 ± 0.06 µM
- IC50 ([10]; HCC827, EGFR Exon 19 del (E746-A750), MTS, TAE226 48 hours, gefitinib 72 hours, read-out: IC50 (μM) (mean ± SD)): 0.086 ± 0.01 µM
- IC50 ([10]; HCC827, independent MTS assays, read-out: each IC50): 0.061 µM and 0.095 µM and 0.09 µM and 0.1 µM
- IC50 ([11]; read-out: IC50 (μM) (mean ± SD), NCI-H1648, HER2 amplification, MTS, TAE226 48 hours, gefitinib 72 hours): 1.7 ± 0.07 µM
- IC50 ([11]; read-out: each IC50, NCI-H1648, independent MTS assays): 1.7 µM and 1.8 µM
- IC50 ([11]; read-out: mean IC50, NCI-H1648, mean of independent MTS assays): 1.7 µM
- IC50 ([12]; read-out: IC50 (μM) (mean ± SD), NCI-H3255, EGFR Exon 21 (L858R), MTS, TAE226 48 hours, gefitinib 72 hours): 0.12 ± 0.005 µM
- IC50 ([12]; read-out: each IC50, NCI-H3255, independent MTS assays): 0.12 µM and 0.13 µM
- IC50 ([12]; read-out: mean IC50, NCI-H3255, mean of independent MTS assays): 0.12 µM
- phosphorylation of EGFR [13, 20]: predominantly inhibited
- phosphorylations of AKT and MAPK [13, 20]: inhibited
- phosphorylations of EGFR, AKT, and MAPK ([13]; cell lines with wild-type EGFR (NCI-H1299 and NCI-H1819)): not inhibited
- tumor volume / tumor growth compared with vehicle-treated mice [14]: significantly decreased; also recorded: significantly inhibited
- IC50 ([16]; read-out: IC50 (μM) (mean ± SD), NCI-H1993, MET amplification, MTS, TAE226 48 hours, gefitinib 72 hours): 0.89 ± 0.001 µM
- IC50 ([16]; read-out: each IC50, NCI-H1993, independent MTS assays): 0.89 µM
- IC50 ([16]; read-out: mean IC50, NCI-H1993, mean of independent MTS assays): 0.89 µM
- IC50 ([17]; read-out: IC50 (μM) (mean ± SD), A549, KRAS Codon 12 (G12S), MTS, TAE226 48 hours, gefitinib 72 hours): 1.4 ± 0.05 µM
- IC50 ([17]; read-out: each IC50, A549, independent MTS assays): 1.4 µM and 1.3 µM
- IC50 ([17]; read-out: mean IC50, A549, mean of independent MTS assays): 1.4 µM
- IC50 [18]: 5900 nM
- phosphorylation of FAK (Thy397) ([19]; up to a concentration of 5 μM, PC-9, HCC827, NCI-H1975, RPC-9, NCI-H1299, NCI-H1819): not significantly inhibited; also recorded: not suppressed
